Results taken from PMC8230565, “Bisavenathramide Analogues as Nrf2 Inductors and Neuroprotectors in In Vitro Models of Oxidative Stress and Hyperphosphorylation” (Antioxidants, 2021).

What was measured:
[1] = Ferric reducing antioxidant power (FRAP) assay; set-up: key to FRAP TEAC: trolox equivalents (TEAC), relative to trolox; settings: for FRAP nmol Fe2+ at 30 µM: 30 µM compound, n in brackets; for FRAP TEAC: 30 µM, relative to trolox
Description: A ferric reducing antioxidant power (FRAP) kit assay purchased from Sigma-Aldrich (Madrid, Spain) was employed for the experiments. The antioxidant solutions, FRAP assay buffer solution, FeCl3 solution, and FRAP probe solution were kept in ice during the preparation of the plate. A calibration standard curve was prepared by using the 2 mM ferrous standard solution provided in the FRAP kit assay. Appropriate aliquots of this solution were taken and diluted up to a 200 μL final volume with FRAP buffer. The final ferrous concentrations measured in the well were: 0, 20, 40, 60, 80, and 100 μM. Each concentration value was prepared and measured by triplicate. Stock solutions of compounds 3, as well as reference compounds trolox and ferulic acid, were freshly prepared in 95% ethanol at […]. Aliquots of 10 μL of compounds 3 and the reference compounds were mixed with 19 μL FeCl3 solution and 19 μL FRAP probe solution, and then completed to a final volume of 200 μL with FRAP assay buffer solution. The final concentration of antioxidants and references was 30 μM. Compounds 3, reference compounds, as well as the corresponding blank solutions (one for each compound to be assayed, avoiding the chromogenic FRAP probe), and positive control were thoroughly mixed in vortex for 1–2 min with the reaction chromogenic media, and then were incubated under darkness at 37 °C in the dry bath, and using the device for support well-plates. Each compound to be assayed and the reference antioxidant compounds were prepared and measured by triplicate. The absorbance values were measured at 594 nm after 5 min of reaction and, to assure complete reaction, the absorbance values after 60 min of incubation at 37 °C in the dry bath were also measured. The absorbance values of the sample antioxidant compounds were corrected by subtracting the corresponding absorbance values of the blanks, and then they were introduced in the calibration curve and the ferrous equivalents were determined. The reference antioxidants employed for this assay were trolox and ferulic acid, which were obtained from Sigma-Aldrich (Madrid, Spain). Ultrapure water was obtained from a Milli-Q Direct 8 system (Millipore, Molsheim, France).
In order to achieve a broader insight into the antioxidant profile of our compounds, we also examined them using a single electron transfer (SET)-based method, namely the ferric reducing antioxidant power (FRAP) assay, which measures the ability of an antioxidant to reduce the ferric ion in the TPTZ (2,4,6-tri(2-pyridyl)-1,3,5-triazine)-Fe(III) complex.

[2] = DPPH radical scavenging assay; settings: n in brackets
Description: The direct antioxidant effects of compounds 3 were investigated by studying their radical-scavenging effect on the 2,2-diphenyl-1-picrylhydrazyl free radical (DPPH^•). Thus, a 100 μL volume of a methanol solution of each compound was added to 200 μL of 100 μM methanolic DPPH^•, and the solution was kept in the dark at 37 °C for 30 min in a 96-well microliter plate. After this incubation, the absorption at 490 nm of each solution was measured with a microplate reader in order to quantitate its decrease. A blank reading was also taken to calculate the amount of remaining DPPH^•. The radical-scavenging activity exerted by compounds 3 was determined by comparison with a 10 μL of MeOH-treated blank group. Ascorbic acid, a well-known antioxidant acting as a radical scavenger, was used as reference. All samples were analyzed in triplicate. Percent inhibition of the DPPH^• radical was calculated using the equation shown below, where AbsCtrl is the absorbance of the blank group and Abss is the absorbance of the samples containing compounds 3. For each compound showing a percentage of inhibition above 60%, the IC50 value was determined using a dose–response curve obtained from measurements corresponding to at least six concentrations. %Scavenger=AbsCtrl−AbsS/AbsCtrl×100
The radical scavenging activity of all compounds was first studied by the DPPH assay, which measures the ability of antioxidant compounds to donate a hydrogen atom to the violet 2,2-diphenyl-1-picrylhydrazyl radical and transform it into a nonradical species. Thus, it is generally considered to belong to the hydrogen atom transfer (HAT) category of methods for measurement of antioxidant activity.

SH-SY5Y cells [3] = test: Neuroprotection against rotenone/oligomycin A in SH-SY5Y cells (MTT); format: cell-based; settings: Homo sapiens, 24 h, 1 µM compound, rotenone 30 µM + oligomycin A 10 µM, read-out: % Neuroprotection ± SEM at 1 µM (rotenone/oligomycin A)
Description: To evaluate the compounds for their neuroprotective effect in an oxidative stress model, we selected the rotenone (30 μM) and oligomycin A (10 μM) (R/O) cocktail, which disturbs the flow of electrons in the mitochondrial respiratory chain. Similarly, SH-SY5Y cells were preincubated with compounds 3 at 1 μM for 24 h. Then, they were co-incubated in the presence of R/O for a further 24 h, evaluating cell viability by the MTT reduction method.
Thus, the R/O combination constitutes a good model of oxidative stress and neurodegeneration with a mitochondrial origin, and has been broadly employed to evaluate potential hit compounds for the treatment of neurodegenerative diseases. Furthermore, treatment of laboratory animals with rotenone is known to induce many features associated to Parkinson’s disease, such as selective nigrostriatal dopaminergic degeneration and the appearance of α-synuclein cytoplasmic inclusions, which are associated with oxidative damage.

SH-SY5Y cells [4] = test: Neuroprotection against okadaic acid in SH-SY5Y cells (MTT); format: cell-based; settings: Homo sapiens, SH-SY5Y, 18 h; 1 µM compound; okadaic acid 20 nM; read-out: % Neuroprotection ± SEM at 1 µM (okadaic acid)
Description: Neuroprotection studies against tau hyperphosphorylation exerted by okadaic acid (OA) were evaluated using the SH-SY5Y cell line as follows. […] After 18 h, cell viability was addressed by the MTT reduction method. MTT (5 mg/mL, 10 μL/well) was added and incubated for 2 h. Then, the medium was removed and the purple formazan crystals formed by viable cells were dissolved using 100 μL of DMSO. A FluoStar Optima spectrophotometer (BMG Labtech, Ortenberg, Baden-Württemberg, Germany) was used to measure the absorbance at 570 nm.
Okadaic acid is a potent inhibitor of protein phosphatase 2A (PP2A), thereby inducing tau hyperphosphorylation. For this reason, it can be employed as a model of neurodegenerative-disease-connected tau hyperphosphorylation, a well-known feature of Alzheimer’s disease, but present also in other NDDs, collectively known as tauopathies and characterized by the pathological aggregation of hyperphosphorylated tau in neurofibrillary tangles. […] Tau hyperphosphorylation is connected to oxidative stress, which activates p38 and deactivates calcineurin, a phosphatase involved in tau dephosphorylation by increasing RCAN1, its natural repressor [34, 35]. Indeed, hyperphosphorylation and oxidative stress have been proposed to generate a vicious circle that is critical to the advance of neurodegenerative tauopathies.

**Q.** For `COc1cc(/C=C/C(=O)O)ccc1O` [Ferulic acid, reference compound], which “FRAP nmol Fe2+ at 30 µM” value [1] is on record?
**A.** Its value is 1.98 ± 0.04 (3) nmol Fe^2+.

**Q.** What about the “FRAP TEAC” value [1] of the same compound?
**A.** Its value is 0.87.

**Q.** Which “FRAP nmol Fe2+ at 30 µM” value [1] does the source give for `Cc1c(C)c2c(c(C)c1O)CCC(C)(C(=O)O)O2` (centres unmarked) [Trolox, reference compound] here?
**A.** The value was 2.28 ± 0.15 (9) nmol Fe^2+.

**Q.** And the “FRAP TEAC” value [1]?
**A.** The value was 1.00.

**Q.** And the IC50 [2]?
**A.** The IC50 was 11.4 ± 1 µM.

**Q.** Which IC50 [2] does the source give for `O=C1O[C@H]([C@@H](O)CO)C(O)=C1O` [Ascorbic acid, reference compound] here?
**A.** Its IC50 is 16.2 ± 0.7 µM.

**Q.** With `COc1ccc2[nH]cc(CCNC(C)=O)c2c1` [Melatonin, reference compound] as the compound, how does the % neuroprotection against rotenone/oligomycin A toxicity at 1 µM (SH-SY5Y cells [3]) read?
**A.** Its % neuroprotection against rotenone/oligomycin A toxicity at 1 µM is 61.4 ± 8.75%.

**Q.** What about the % neuroprotection against okadaic acid at 1 µM (SH-SY5Y cells [4]) of the same compound?
**A.** Its % neuroprotection against okadaic acid at 1 µM is 67.7 ± 13.9%.
